Key:
[1] = tested on: MHC class I molecules of T1 cells (human lymphoma cell line 174×CEM.); test: Effect on expression of MHC class I from T1 cells (flow cytometry, MFI); format: cell-based; details: 3 days culture
In short: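 EC20 is the compound level that lowers MHC class I MFI by 20% relative to compound-free cultures. Read-out was flow cytometry after FITC W6/32 staining.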

[2] = tested on: BALB/c mice; test: Effect on mouse plaque forming cells (PFCs) to sheep erythrocytes; format: in vivo; details: Oral, 50 mg/kg/single administration, twice a day for 4 days
Protocol: Effect on Mouse Plaque Forming Cells (PFCs)
Sheep erythrocytes (Nippon Seibutsu Zairyo Center, Co., Ltd.) were intraperitoneally administered to each of BALB/c mice (Charles River Japan, Inc.; female; 8-week-old) at an amount of 1.0×10^8 cells. Thereafter, a test compound was administered thereto twice a day for 4 days after the first administration (only once on the first day) (n=4). On the day subsequent to completion of the administration of the test compound, splenic cells were prepared from the mouse, and the number of PFCs to the sheep erythrocytes was counted by the method of Cunninham (Cunninham, A. J. et al., Immunology, vol. 14, p. 599 (1968)). The number of PFCs per number of splenic cells of 1.0×10^6 was obtained. The reduction rate of the number of PFC in the mouse to which the test compound had been administered, to the number of PFCs in a control mouse to which the test compound had not been administered but only a solvent had been administered, was calculated using the following formula (4).
[formula] • Eexp: The number of PFCs per 1×10^6 splenic cells of mouse to which test compound was administered • Cexp: The number of PFCs per 1×10^6 splenic cells of mouse to which solvent was administered

[3] = tested on: (C57BL/6XB6. C—H2^bml) F1 mice; test: Life-lengthening effect on graft versus host disease (GVHD); format: in vivo, mouse; details: oral, once a day
Protocol: Life-Lengthening Effect on Graft Versus Host Disease (GVHD)
The present test was carried out by modification of the method of Jonathan et al. (Jonathan et al., Blood, p. 93 (1999)). First, 6.0 Gy X-ray was applied to (C57BL/6XB6. C—H2^bml) F1 mice (produced by mating 6XB6.C—H2^bml mice (Jackson Laboratory) with C57BL/6 mice (Charles River Japan); female; 8 to 12-week-old). Thereafter, CD8 positive T cells (1.25×10^6 cells) prepared from the splenic cells of C57BL/6 mice (Charles River Japan; female; 8-week-old) were intravenously injected into the above (C57BL/6XB6. C—H2^bml) F1 mice. From the day before the injection, the test compound having each diluted concentration or 0.5% carboxymethyl cellulose used as a solvent was orally administered to the mice once a day for 7 to 30 consecutive days. The day on which the transplantation was conducted was defined as day 0. Based on the median of the survival days of each group, the prolongation rate of such survival dates was calculated using the following formula (7). Thus, the effect of the test compound on GVHD was analyzed.
[formula] • Eexp: Median of survival days of test compound administration group • Cexp: Median of survival days of solvent administration group

[4] = tested on: CD1a; test: Expression of antigen-presenting and costimulatory molecules of human peripheral blood-derived dendritic cells: CD1a; format: cell-based; details: Analyte 1 (dendritic cells of one healthy subject), 3 days
Protocol: (§1) Action on Expression of Antigen-Presenting Molecules and Costimulatory Molecules of Human Peripheral Blood-Derived Dendritic Cells
The dendritic cells obtained by the same method as in Test Example 2 were suspended in RPMI 1640 comprising 10% FCS containing 500 U/ml GM-CSF, 50 ng/ml IL-4, and 100 U/ml human recombinant tumor necrosis factor (2.5×10^6 cells/ml). Thereafter, the suspension was inoculated into a 6-well plate at an amount of 2.0 ml/well, and the test compound was then added thereto. The mixture was cultured at 37° C. for 3 days in an incubator containing 5% carbon dioxide. Thereafter, the suspended cells were recovered. The cells were then stained with fluoroisothiocyanate-labeled mouse monoclonal antibodies reacting with MHC class I (Bechman Coulter), CD1a (Immunotech), CD40 (Pharmingen), CD80 (Pharmingen), and CD83 (Immunotech). Thereafter, mean fluorescence intensity and the ratio of positive cells were measured by flow cytometry. The expression level was calculated by the formula “the mean fluorescence intensity x the ratio of positive cells,” and the inhibition rate of the surface antigen expression level of dendritic cells was then obtained by the following formula (8). […]

[5] = tested on: MHC class I; test: Expression of antigen-presenting and costimulatory molecules of human peripheral blood-derived dendritic cells: MHC class I; format: cell-based
Protocol: as §1
The dendritic cells obtained by the same method as in Test Example 2 were suspended in RPMI 1640 comprising 10% FCS containing 500 U/ml GM-CSF, 50 ng/ml IL-4, and 100 U/ml human recombinant tumor necrosis factor (2.5×10^6 cells/ml). Thereafter, the suspension was inoculated into a 6-well plate at an amount of 2.0 ml/well, and the test compound was then added thereto. The mixture was cultured at 37° C. for 3 days in an incubator containing 5% carbon dioxide. Thereafter, the suspended cells were recovered. The cells were then stained with fluoroisothiocyanate-labeled mouse monoclonal antibodies reacting with MHC class I (Bechman Coulter), CD1a (Immunotech), CD40 (Pharmingen), CD80 (Pharmingen), and CD83 (Immunotech). Thereafter, mean fluorescence intensity and the ratio of positive cells were measured by flow cytometry. The expression level was calculated by the formula “the mean fluorescence intensity x the ratio of positive cells,” and the inhibition rate of the surface antigen expression level of dendritic cells was then obtained by the following formula (8).
[formula] • Eexp: Expression level of surface antigens of dendritic cells cultured in the presence of test compound • Cexp: Expression level of surface antigens of dendritic cells cultured in the absence of test compound

CC(C)NC(=O)Nc1nc2nccc(-c3cccs3)n2n1 [Example 029, 1-isopropyl-3-(7-thiophen-2-yl[1,2,4]triazolo[1,5-a]pyrimidin-2-yl)urea]
EC20 (concentration necessary for suppressing 20% of the expression level of MHC class I molecules) [1]: 0.234 µM
Reduction rate (%) of number of PFCs [2]: 49.3%
Lengthening rate of survival days (%) ([3]; 25 mg/kg/single administration): 75%
Lengthening rate of survival days (%) ([3]; 100 mg/kg/single administration): 200%
Expression inhibition rate by test compound (%), CD1a [4]: 55.6%
Expression inhibition rate by test compound (%), MHC class I ([5]; Analyte 1, 3 days): 72.3%
Expression inhibition rate by test compound (%), MHC class I ([5]; Analyte 2, 3 days): 63.9%
Expression inhibition rate by test compound (%), MHC class I ([5]; Analyte 3, 3 days): 72.6%
